Test results from US10407388B2, “Thiourea derivatives as activators of RORα and pharmaceutical composition containing same” (SEOUL NATIONAL UNIVERSITY R & DB FOUNDATION, priority 2011, dated 2019).

Target: T1, RORα (Homo sapiens, UniProt P35398)
T1 construct: expressed in transfected cells; host or cells: CV-1 cells (ATCC CCL-70)
T1 sequence (P35398 1-523): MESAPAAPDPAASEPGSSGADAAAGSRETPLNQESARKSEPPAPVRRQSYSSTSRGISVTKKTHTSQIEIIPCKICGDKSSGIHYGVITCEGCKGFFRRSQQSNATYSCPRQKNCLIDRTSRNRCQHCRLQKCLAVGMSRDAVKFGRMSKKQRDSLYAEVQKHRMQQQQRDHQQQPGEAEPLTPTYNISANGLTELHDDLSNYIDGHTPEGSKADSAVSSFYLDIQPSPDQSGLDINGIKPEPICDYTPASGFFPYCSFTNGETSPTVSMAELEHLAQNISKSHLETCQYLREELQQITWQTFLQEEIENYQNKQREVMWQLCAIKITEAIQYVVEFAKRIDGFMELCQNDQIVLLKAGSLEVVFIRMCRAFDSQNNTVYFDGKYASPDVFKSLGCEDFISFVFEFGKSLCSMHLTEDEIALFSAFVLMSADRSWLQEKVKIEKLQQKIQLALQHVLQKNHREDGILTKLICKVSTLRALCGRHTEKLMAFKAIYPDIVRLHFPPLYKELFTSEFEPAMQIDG
Experiment: Transcriptional activity of RORα, RORE-tk-Luc reporter in CV-1 cells (Experimental Example 1)
Assay type: cell-based
Details: JC1 compounds 100 μM, 24 hours; luciferase activity standardized by β-gal; versus control treated only with solvent
Protocol: CV-1 cells (CCL-70) were purchased from American Type Culture Collection (ATCC). The CV-1 cells (4×10^4 cells/well) were seeded on a 24-well culture plate and cultured overnight in a Dulbecco's Modified Eagle's Medium (DMEM) containing 10% fetal bovine serum (FBS). The CV-1 cells were maintained at 37° C. in a humidification thermostat containing 5% CO2 and 95% air. After culturing, the cells were transformed with RORE-tk-Luc reporter plasmid (100 ng) and ROR expression vector (5 ng) using calcium phosphate. […]

Going from `CNC(=S)NCc1ccccc1Br` [Compound 1, 1-(2-bromo-benzyl)-3-methyl-thiourea] to `CNC(=S)NCc1ccccc1C` [Compound 7, 1-(2-methyl-benzyl)-3-methyl-thiourea], the “Fold Activation” value falls from 3.4 to 0.7.

Compared with `CNC(=S)NCc1ccc(Br)cc1` [Compound 2, 1-(4-bromo-benzyl)-3-methyl-thiourea], `CNC(=S)NCc1ccc(Cl)cc1` [Compound 3, 1-(4-chloro-benzyl)-3-methyl-thiourea] is higher in “Fold Activation” value: 1.4 for the first, 2.6 for the second.

Going from `CNC(=S)NCc1ccc(OC)cc1` [Compound 4, 1-(4-methoxy-benzyl)-3-methyl-thiourea] to `CNC(=S)NCc1ccc(C)cc1` [Compound 14, 1-(4-methyl-benzyl)-3-methyl-thiourea], the “Fold Activation” value rises from 3.4 to 3.9.

Compared with `CNC(=S)NCc1ccc(OC)cc1OC` [Compound 5, 1-(2,4-dimethoxy-benzyl)-3-methyl-thiourea], `CNC(=S)NCc1cccc(OC)c1OC` [Compound 15, 1-(2,3-dimethoxy-benzyl)-3-methyl-thiourea] is higher in “Fold Activation” value: 1.1 for the first, 1.5 for the second.

Going from `CNC(=S)NCc1cccc(C)c1` [Compound 6, 1-(3-methyl-benzyl)-3-methyl-thiourea] to `CNC(=S)NCc1cccc(Cl)c1` [Compound 28, 1-(3-chloro-benzyl)-3-methyl-thiourea], the “Fold Activation” value falls from 1.1 to 0.7.

First: CNC(=S)NCc1ccc2c(c1)OCO2 [Compound 8, 1-(benzo[1,3]dioxyl-5-methyl)-3-methyl-thiourea]
Second: CNC(=S)NCc1ccc(O)c(O)c1 [Compound 22, 1-(3,4-dihydroxy-benzyl)-3-methyl-thiourea]
The “Fold Activation” value of the first is higher: 1.7 for the first, 0.6 for the second.

Compared with `CNC(=S)NCc1ccc(O)c(OC)c1` [Compound 9, 1-(4-hydroxy-3-methoxy-benzyl)-3-methyl-thiourea], `CNC(=S)NCc1ccc(OC)c(O)c1` [Compound 25, 1-(3-hydroxy-4-methoxy-benzyl)-3-methyl-thiourea] is higher in “Fold Activation” value: 1.4 for the first, 1.9 for the second.

Going from `CNC(=S)NCc1ccc(N(C)C)cc1` [Compound 10, 1-(4-dimethylamino-benzyl)-3-methyl-thiourea] to `CNC(=S)NCc1ccc(F)cc1` [Compound 30, 1-(4-fluoro-benzyl)-3-methyl-thiourea], the “Fold Activation” value rises from 1.3 to 2.5.

First: CNC(=S)NCc1ccc(C(F)(F)F)cc1 [Compound 11, 1-(4-trifluoromethyl-benzyl)-3-methyl-thiourea]
Second: CNC(=S)NCc1ccc(C(C)(C)C)cc1 [Compound 13, 1-(4-t-butyl-benzyl)-3-methyl-thiourea]
The “Fold Activation” value of the first is higher: 2.3 for the first, 0.9 for the second.

Going from `CNC(=S)NCc1ccc([N+](=O)[O-])cc1` [Compound 12, 1-(4-nitro-benzyl)-3-methyl-thiourea] to `CNC(=S)NCc1cccc([N+](=O)[O-])c1` [Compound 17, 1-(3-nitro-benzyl)-3-methyl-thiourea], the “Fold Activation” value falls from 1.6 to 0.9.

First: CCOc1ccccc1CNC(=S)NC [Compound 16, 1-(2-ethoxy-benzyl)-3-methyl-thiourea]
Second: C=CCOc1ccccc1CNC(=S)NC [Compound 39, 1-(2-allyloxy-benzyl)-3-methyl-thiourea]
The “Fold Activation” value of the first is lower: 1.4 for the first, 1.8 for the second.

First: CNC(=S)NCc1ccccc1[N+](=O)[O-] [Compound 18, 1-(2-nitro-benzyl)-3-methyl-thiourea]
Second: CNC(=S)NCc1ccccc1Cl [Compound 34, 1-(2-chloro-benzyl)-3-methyl-thiourea]
The “Fold Activation” value of the first is higher: 2.1 for the first, 0.8 for the second.

First: CNC(=S)NCc1cc(OC)c(OC)c(OC)c1 [Compound 19, 1-(3,4,5-trimethoxy-benzyl)-3-methyl-thiourea]
Second: CNC(=S)NCc1cc(OC)cc(OC)c1 [Compound 20, 1-(3,5-dimethoxy-benzyl)-3-methyl-thiourea]
The “Fold Activation” value of the first is higher: 2.2 for the first, 1.0 for the second.

Going from `CNC(=S)NCc1ccc(Cl)cc1Cl` [Compound 21, 1-(2,4-dichloro-benzyl)-3-methyl-thiourea] to `CNC(=S)NCc1cccc(Cl)c1Cl` [Compound 33, 1-(2,3-dichloro-benzyl)-3-methyl-thiourea], the “Fold Activation” value rises from 0.6 to 0.7.

Going from `CNC(=S)NCc1ccc(OC)cc1OC` [Compound 23, 1-(2,4-dimethoxy-benzyl)-3-methyl-thiourea] to `CNC(=S)NCc1ccc(F)cc1F` [Compound 32, 1-(2,4-difluoro-benzyl)-3-methyl-thiourea], the “Fold Activation” value falls from 2.9 to 0.9.

Compared with `CNC(=S)NCc1ccc(-c2ccccc2)cc1` [Compound 24, 1-(4-phenyl-benzyl)-3-methyl-thiourea], `CCOc1cc(-c2ccccc2)ccc1CNC(=S)NC` [Compound 44, 1-(3-ethoxy-biphenyl-4-methyl)-3-methyl-thiourea] is higher in “Fold Activation” value: 0.2 for the first, 1.2 for the second.

Compared with `CNC(=S)NCc1ccc(Cl)c(Cl)c1` [Compound 27, 1-(3,4-dichloro-benzyl)-3-methyl-thiourea], `CNC(=S)NCc1ccc(F)c(F)c1` [Compound 31, 1-(3,4-difluoro-benzyl)-3-methyl-thiourea] is lower in “Fold Activation” value: 1.0 for the first, 0.8 for the second.

First: CNC(=S)NCc1cccc(F)c1 [Compound 29, 1-(3-fluoro-benzyl)-3-methyl-thiourea]
Second: CNC(=S)NCc1ccc2ccccc2c1 [Compound 43, 1-methyl-3-naphthalene-2-methyl-thiourea]
The “Fold Activation” value of the first is higher: 1.1 for the first, 0.7 for the second.

Compared with `CNC(=S)N[C@H](C)c1ccc(OC)cc1` [Compound 35, R-(+)-1-[1-(4-methoxy-phenyl)-ethyl]-3-methyl-thiourea], `CNC(=S)N[C@@H](C)c1ccc(OC)cc1` [Compound 36, S-(−)-1-[1-(4-methoxy-phenyl)-ethyl]-3-methyl-thiourea] is lower in “Fold Activation” value: 0.7 for the first, 0.6 for the second.

First: CNC(=S)NCc1ccc(OC)c(OCc2ccccc2)c1 [Compound 41, 1-(3-benzyloxy-4-methoxy-benzyl)-3-methyl-thiourea]
Second: CCOc1cc(C=Cc2ccccc2)ccc1CNC(=S)NC [Compound 47, 1-(2-ethoxy-4-styryl-benzyl)-3-methyl-thiourea]
The “Fold Activation” value of the first is higher: 2.5 for the first, 1.2 for the second.

`CCOc1cc(-c2ccc(C(C)(C)C)cc2)ccc1CNC(N)=S` [Compound 45, (4′-tert-butyl-3-ethoxy-biphenyl-4-methyl)-thiourea] and `CCOc1cc(-c2ccc(C(F)(F)F)cc2)ccc1CNC(=S)NC` [Compound 48, 1-(3-ethoxy-4′-trifluoromethyl-biphenyl-4-methyl)-3-methyl-thiourea] are the same in “Fold Activation” value: 1.0 for the first, 1.0 for the second.

First: CNC(=S)NCc1ccccc1Oc1ccccc1 [Compound 51, 1-methyl-3-(2-phenoxy-benzyl)-thiourea]
Second: CNC(=S)NCc1ccc(Oc2ccc(F)cc2)cc1 [Compound 52, 1-[4-(4-fluoro-phenoxy)-benzyl]-3-methyl-thiourea]
The “Fold Activation” value of the first is lower: 1.3 for the first, 1.5 for the second.

`CNC(=S)NCc1ccc(Oc2ccc(OC)cc2)cc1` [Compound 53, 1-[4-(4-methoxy-phenoxy)-benzyl]-3-methyl-thiourea] was tested, and the “Fold Activation” value was 2.1.
